Measured values taken from patent US8809352B2, “Sulfonamides as inhibitors of Bcl-2 family proteins for the treatments of cancer” (Novartis AG, priority 2009, dated 2014).

Molecular target: BCL2 (Homo sapiens, UniProt P10415)
Experiment: Biacore SPR solution inhibition assay of BCL-2 binding to peptide derivatized sensor surfaces
Conditions: SPR competition; 56 nM BCL2 pre-equilibrated with compound one hour; biotinylated BAK, BAD and NOXA peptide surfaces; 25° C.
Summary of the method: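 Solution-competition SPR at 25 °C in HEPES pH 7.4 buffer with 1.25 mM DTT and 3% DMSO: compounds (6-point threefold series, 16 μM to 0.004 nM) pre-equilibrated 1 h with 56 nM BCL2, then injected over captured biotinylated BAK, BAD and NOXA peptide surfaces. Binding levels relative to BCL2-only controls gave % inhibition.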

Sequence of BCL2 (P10415 whole entry): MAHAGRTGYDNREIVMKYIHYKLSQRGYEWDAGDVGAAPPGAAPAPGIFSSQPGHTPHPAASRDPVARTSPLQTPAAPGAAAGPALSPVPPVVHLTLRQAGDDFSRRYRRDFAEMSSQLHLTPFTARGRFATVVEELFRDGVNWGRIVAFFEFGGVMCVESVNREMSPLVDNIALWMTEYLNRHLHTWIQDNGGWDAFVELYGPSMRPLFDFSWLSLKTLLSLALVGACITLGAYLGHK

Row | SMILES | IC50 [nM]
1 | O=S(=O)(Nc1ncnc2c1CCN(C1CCN(Cc3ccccc3-c3ccc(Cl)cc3)CC1)C2)c1ccc(N[C@H](CCN2CCCCC2)CSc2ccccc2)c(S(=O)(=O)C(F)(F)F)c1 [Example 30, (R)-N-(7(1-((4′-chlorobiphenyl-2-yl)methyl)piperidin-4-yl)-5,6,7,8-tetrahydropyrido[3,4-d]pyrimidin-4-yl)-4-(l-(phenylthio)-4-(piperidin-1-yl)butan-2-ylamino)-3-(trifluoromethylsulfonyl)benzenesulfonamide] | 128
2 | CN(C)CC[C@H](CSc1ccccc1)Nc1ccc(S(=O)(=O)Nc2ncnc3c2CCN(C2CCN(Cc4ccccc4-c4ccc(C(F)(F)F)cc4)CC2)C3)cc1S(=O)(=O)C(F)(F)F [Example 99, (R)-4-(4-(dimethylamino)-1-(phenylthio)butan-2-ylamino)-N-(7-(1-((4′-(trifluoromethyl)biphenyl-2-yl)-methyl)piperidin-4-yl)-5,6,7,8-tetrahydropyrido[3,4-d]pyrimidin-4-yl)-3-(trifluoromethylsulfonyl)benzenesulfonamide] | 37
3 | O=S(=O)(Nc1nnc2n1CCN(C1CCCN(Cc3ccccc3-c3ccc(Cl)cc3)CC1)C2)c1ccc(N[C@H](CCN2CCOCC2)CSc2ccccc2)c(S(=O)(=O)C(F)(F)F)c1 (stereo partly drawn) [Example 95, N-{7-[1-(4′-Chloro-biphenyl-2-ylmethyl)-azepan-4-yl]-5,6,7,8-tetrahydro-[1,2,4]triazolo[4,3-a]pyrazin-3-yl}-4-((R)-3-morpholin-4-yl-1-phenylsulfanylmethyl-propylamino)-3-trifluoromethanesulfonyl-benzenesulfonamide] | 1900
4 | C[C@H](CSc1ccccc1)Nc1ccc(S(=O)(=O)Nc2ncnc3c2CCN(C2CCN(CC4=C(c5ccc(Cl)cc5)CC(C)(C)CC4)CC2)C3)cc1S(=O)(=O)C(F)(F)F [Example 45, N-(7-(1-((2-(4-chlorophenyl)-4,4-dimethylcyclohex-1-enyl)methyl)piperidin-4-yl)-5,6,7,8-tetrahydropyrido[3,4-d]pyrimidin-4-yl)-4-(1-(phenylthio)propan-2-ylamino)-3-(trifluoromethylsulfonyl)benzenesulfonamide] | 365
5 | CN(C)CC[C@H](CSc1ccccc1)Nc1ccc(S(=O)(=O)Nc2nc(C(F)(F)F)nc3c2CCN(C2CCN(CC4=C(c5ccc(Cl)cc5)CCC(C)(C)C4)CC2)C3)cc1S(=O)(=O)C(F)(F)F [Example 70] | 51
6 | [2H]C1(N2CCc3c(ncnc3NS(=O)(=O)c3ccc(N[C@H](CCN4CCOCC4)CSc4ccccc4)c(S(=O)(=O)C(F)(F)F)c3)C2)CCN(C(C)C2=C(c3ccc(Cl)cc3)CC(C)(C)CC2)CC1 (stereo partly drawn) [Example 90, N-(7-(1-(1-(2-(4-chlorophenyl)-4,4-dimethylcyclohex-1-enyl)ethyl) 4-deuteropiperidin-4-yl)-5,6,7,8-tetrahydropyrido[3,4-d]pyrimidin-4-yl)-4-((R)-4-D-morpholino-1-(phenylthio)butan-2-ylamino)-3-(trifluoromethylsulfonyl)benzenesulfonamide] | 149
7 | [2H]C1(N2CCc3c(ncnc3NS(=O)(=O)c3ccc(N[C@H](CCN4CCN(C)CC4)CSc4ccccc4F)c(S(=O)(=O)C(F)(F)F)c3)C2)CCN(CC2=C(c3ccc(Cl)cc3)CC(C)(C)CC2)CC1 [Example 83] | 28
8 | [2H]C1(N2CCc3c(ncnc3NS(=O)(=O)c3ccc(N[C@H](CCN)CSc4ccccc4)c(S(=O)(=O)C(F)(F)F)c3)C2)CCN(Cc2cc(F)ccc2-c2ccc(Cl)cc2)CC1 [Example 79, 4-((R)-3-Amino-1-phenylsulfanylmethyl-propylamino)-N-{7-[4-deutero-1-(4′-chloro-4-fluoro-biphenyl-2-ylmethyl)-piperidin-4-yl]-5,6,7,8-tetrahydro-pyrido[3,4-d]pyrimidin-4-yl}-3-trifluoromethanesulfonyl-benzenesulfonamide] | 84
